Results on 20 compounds are retold here after patent US10709711B2 (G1 Therapeutics, Inc., priority 2013, dated 2020).

For assay [1], the system named is Daudi (human B-lymphoblastoid cell from Burkitt's Lymphoma patient). In words: Inhibition of cellular proliferation, Daudi cells (CellTiter-Glo). It is filed as cell-based. The settings on record: EC50 measured as illustrated in Example 150 (CellTiter-Glo). Here is the method: (§1) The SupT1 cells were seeded in Costar (Tewksbury, Mass.) 3093 96 well tissue culture treated white walled/clear bottom plates. A nine point dose response dilution series from 10 uM to 1 nM was performed and cell viability was determined after four days as indicated using the CellTiter-Glo® assay (CTG; Promega, Madison, Wis., United States of America) following the manufacturer's recommendations. Plates were read on a BioTek (Winooski, Vt.) Syngergy2 multi-mode plate reader. The Relative Light Units (RLU) were plotted as a result of variable molar concentration and data was analyzed using Graphpad (LaJolla, Calif.) Prism 5 statistical software to determine the IC50 for each compound.
(§2) The compounds listed in Table 1 were tested for the inhibition of cellular proliferation using SupT1 (human T-cell lymphoblastic leukemia) and Daudi (human B-lymphoblastoid cell from Burkitt's Lymphoma patient).

The subject of assay [2] is SupT1 cells (human T-cell lymphoblastic leukemia). The assay is described as follows: Inhibition of cellular proliferation, SupT1 cells (CellTiter-Glo). It counts as cell-based. The settings on record: SUP-T1, 96 h, cell viability after four days, nine point dilution series 10 uM to 1 nM. The procedure:
as §1, §2
Background: In ATP-based viability assays light output follows the ATP content of the culture.

Each structure is given as a SMILES string.

The term EC50 denotes the concentration at which the effect is half-maximal. A higher EC50 goes with weaker potency. As to `CC(C)N1CCN(c2ccc(Nc3ncc4cc5n(c4n3)C3(CCCC3)CNC5=O)nc2)CC1C` (stereo not shown) [GGG], the results for the EC50 in assay [1] and in assay [2] were 586 nM and 161 nM, respectively.
Turning to `CCC(C)CN1CCN(c2ccc(Nc3ncc4cc5n(c4n3)C3(CCCC3)CNC5=O)nc2)CC1` (stereo not shown) [AAA], the EC50 in assay [1] amounted to 3340 nM; in assay [2], 15 nM.
`CCOCCN1CCN(c2ccc(Nc3ncc4cc5n(c4n3)C3(CCCC3)CNC5=O)nc2)CC1` [MMM]: the EC50 in assay [1] turned out to be 294 nM; in assay [2], 37 nM.
On to `O=C1NCC2(CCCC2)n2c1cc1cnc(Nc3ccc(N4CCOCC4)nn3)nc12` [SSS], for which the EC50 in assay [1] is above 3000 nM; in assay [2], 305 nM.
On to `CN(C)C1CCN(c2ccc(Nc3ncc4cc5n(c4n3)C3(CCCCC3)CNC5=O)nn2)CC1` [SS], for which the EC50 stood at 967 nM in assay [1] and 11 nM in assay [2].
Consider `CN(C)C1CCN(c2ccc(Nc3ncc4cc5n(c4n3)C3(CCCC3)CNC5=O)nc2)CC1` [YY], for which the EC50 in assay [1] is 356 nM; in assay [2] it was 97 nM.
The corresponding values for `CCN(CC)C1CCN(c2ccc(Nc3ncc4cc5n(c4n3)C3(CCCC3)CNC5=O)nc2)CC1` [LLL] are 1550 nM and 241 nM.
As for `CC(C)N1CCN(c2ccc(Nc3ncc4cc5n(c4n3)C3(CCCCC3)CNC5=O)nn2)CC1` [TT], the EC50 in assay [1] came to 589 nM; in assay [2], 92 nM.
Take `O=C1NCC2(CCCCC2)n2c1cc1cnc(Nc3ccc(N4CCC(N5CCCCC5)CC4)cn3)nc12` [N]: the results for the EC50 in assay [1] and in assay [2] were 122 nM and 34 nM, respectively.
As for `CC1CN(c2ccc(Nc3ncc4cc5n(c4n3)C3(CCCCC3)CNC5=O)nc2)CC(C)N1CC1CC1` (stereo not shown) [OO], the EC50 was found to be 880 nM in assay [1] and 114 nM in assay [2].
The matching figures for `CC(C)N1CCN(C(=O)c2ccc(Nc3ncc4cc5n(c4n3)C3(CCCCC3)CNC5=O)nc2)CC1` [II]: 347 nM and 42 nM.
The corresponding values for `C[C@H]1CN(c2ccc(Nc3ncc4cc5n(c4n3)C3(CCCCC3)CNC5=O)nc2)CCN1CC1CC1` [B] are 385 nM and 96 nM.
The corresponding values for `CC1(C)CN(c2ccc(Nc3ncc4cc5n(c4n3)C3(CCCCC3)CNC5=O)nc2)CCN1C1CC1` [BB] are 472 nM and 70 nM.
For the compound `CC(C)(O)CN1CCN(c2ccc(Nc3ncc4cc5n(c4n3)C3(CCCC3)CNC5=O)nc2)CC1` [EEE], the EC50 in assay [1] came out at 475 nM; in assay [2], 65 nM.
As for `CCC(C)[C@@H]1CNC(=O)c2cc3cnc(Nc4ccc(N5CCNCC5)cn4)nc3n21` (stereo partly shown) [VVV], the EC50 was 1070 nM in assay [1] and 224 nM in assay [2].
`O=C1NCC2(CCCC2)n2c1cc1cnc(Nc3ccc(N4CCC(N5CCCCC5)CC4)cn3)nc12` [HHH]: the EC50 in assay [1] came to 984 nM; in assay [2], 85 nM.
`CN1CCN(c2ccc(Nc3ncc4cc5n(c4n3)C3(CCCCC3)CNC5=O)nc2)CC1(C)C` [D]: the figures for the EC50 in assay [1] and in assay [2] were 297 nM and 55 nM, respectively.
On to `CC(C)N1CCN(c2ccc(Nc3ncc4cc5n(c4n3)C3(CCCC3)CNC5=O)nc2)CC1` [III], for which the EC50 in assay [1] was 775 nM; in assay [2] it was 230 nM.
The corresponding values for `CC1CN(c2ccc(Nc3ncc4cc5n(c4n3)C3(CCCC3)CNC5=O)nc2)CCN1CC1CC1` (stereo not shown) [NNN] are 519 nM and 160 nM.
For the compound `C[C@@H]1CN(c2ccc(Nc3ncc4cc5n(c4n3)C3(CCCCC3)CNC5=O)nc2)CCN1C` [NN], the EC50 in assay [1] is 1040 nM; in assay [2], 84 nM.
